Reference: PubChem BioAssay AID1963959 (Molecular Pharmacology Branch, DTP, NCI, 2024)

Tested on: T-47D spheroids with HUVEC/MSC, viability
Experiment: Anticancer human tumor T-47D cell line growth inhibition [PI3K];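 further: spheroids exposed to agents for seven days before reading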;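 on viability, T/C: percent of DMSO vehicle control luminescence so 100% = untreated growth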
Conditions: for IC50: curve of first compound; for viability, T/C: stronger effect = lower value
Source text: Combinatorial screen of targeted agents with the PI3K inhibitors inavolisib, alpelisib, duvelisib, and copanlisib in multi-cell type tumor spheroids
A high-throughput screen of multi-cell type tumor spheroids was designed to identify active combinations of targeted small molecules and PI3K pathway inhibitors. Complex spheroids include a stromal component modeled by human endothelial cells (HUVEC) and fibroblasts modeled by human mesenchymal stem cells (MSCs). The concentration ranges selected for each drug and investigational agent were based upon clinically achievable concentrations if the clinical Cmax of the agent was known.
Compounds. The drugs and investigational agents: inavolisib (NSC800729), alpelisib (NSC765974), duvelisib (NSC772469), copanlisib (NSC816437), ipatasertib (NSC767898), afuresertib (NSC778305), talazoparib (NSC767125), sapanisertib (NSC764658), selumetinib (NSC741078), tovorafenib (DAY101, NSC766906), vemurafenib (NSC761431), ravoxertinib (NSC781343), sotorasib (NSC818433), MRTX1133 (NSC 836407), abemaciclib (NSC 768073), palbociclib (NSC758247), venetoclax (NSC 766270), SY5609 (NSC837396), enzalutamide (NSC755605), and darolutamide (NSC825331), were obtained from the National Cancer Institute (NCI) Developmental Therapeutics Program Chemical Repository. The FDA-approved anticancer drug set is available from the NCI Developmental Therapeutics Program. […] The stock solutions were prepared in dimethyl sulfoxide (DMSO, Sigma-Aldrich, St. Louis, MO, cat. D2650) at 800-fold the tested concentration and stored at -70 degrees C prior to their use. All drugs and investigational agents were tested over a range starting from a high concentration at or near the clinical Cmax and decreasing in half-log increments. If the clinical Cmax for an agent had not been determined, the highest concentration tested was 10 microM.
Cell Culture. All cells were maintained in an incubator at 37 degrees C and 5% CO2 with 95% humidity. The PDC lines were cultured according to standard operating procedures established by the NCI PDMR (https://pdmr.cancer.gov/sops/default.htm). All PDCs were thawed and cultured in Matrigel-coated flasks prepared with a working solution of 1X Ham's F-12 nutrient mix, without supplementation (Invitrogen, Waltham, MA, cat. 11765054), 100 U/mL penicillin-streptomycin (Invitrogen, cat. 15140122), and 2.5% Matrigel (Corning Inc., Corning, NY, cat. 354248) for the first three passages. The 354836-022-R-J1-PDC, 475296-252-R-J1-PDC, and 997726-040-R-J2-PDC lines were cultured in 6A media, which includes advanced DMEM/F-12 (Thermo Fisher Scientific, cat. 12634028), 10 mM HEPES (Thermo Fisher Scientific, cat. 15630080), 1X GlutaMAX supplement (Thermo Fisher Scientific, cat. 35050061), 0.1 mg/mL primocin (InvivoGen, San Diego, CA, cat. ant-pm-2), 10% defined fetal bovine serum, heat inactivated (HyClone Laboratories Inc., Logan, UT, cat. SH30070.03HI), 50% L-WRN conditioned media (ATCC, cat. CRL-3276), 1.25 mM N-Acetyl-L-cysteine (Sigma-Aldrich, cat. A9165), 10 mM nicotinamide (Sigma-Aldrich, cat. N0636), 1X B-27 supplement (Thermo Fisher Scientific, cat. 17504044), 1X N-2 supplement (Thermo Fisher Scientific, cat. 17502048), and 10 microM Y-27632 dihydrochloride (Tocris Bioscience, Bristol, United Kingdom, cat. 1254). The 624824-186-R-J2-PDC line was cultured in 6C/Colon 1B media, which includes all 6A media components plus 50 ng/mL human EGF recombinant protein (Thermo Fisher Scientific, cat. PHG0311). […]

CC1(C)CCC(CN2CCN(c3ccc(C(=O)NS(=O)(=O)c4ccc(NCC5CCOCC5)c([N+](=O)[O-])c4)c(Oc4cnc5[nH]ccc5c4)c3)CC2)=C(c2ccc(Cl)cc2)C1 + COc1c(OCCCN2CCOCC2)ccc2c3n(c(=NC(=O)c4cnc(N)nc4)nc12)CCN3 was tested, and the IC50 (second compound 0.00316 µM) was over 10 µM, the IC50 (second compound 0.01 µM) was over 10 µM and the IC50 (second compound 0.0316 µM) was over 10 µM. For the same compound, the IC50 (second compound 0.1 µM) was under 0.0316 µM, the IC50 (second compound 0.316 µM) was under 0.0316 µM and the IC50 (second compound 1 µM) was under 0.0316 µM. The viability, T/C (second compound 0.00316 µM, first compound 0.0316 µM) was 117%, the viability, T/C (second compound 0.00316 µM, first compound 0.1 µM) was 80.5% and the viability, T/C (second compound 0.00316 µM, first compound 0.316 µM) was 122%. For the same compound, the viability, T/C (second compound 0.00316 µM, first compound 1 µM) was 74%, the viability, T/C (second compound 0.00316 µM, first compound 3.16 µM) was 82.4% and the viability, T/C (second compound 0.00316 µM, first compound 10 µM) was 108%. It also gave a viability, T/C (second compound 0.01 µM, first compound 0.0316 µM) of 100%, a viability, T/C (second compound 0.01 µM, first compound 0.1 µM) of 69.8% and a viability, T/C (second compound 0.01 µM, first compound 0.316 µM) of 91.5%. The viability, T/C (second compound 0.01 µM, first compound 1 µM) was 78.6%, the viability, T/C (second compound 0.01 µM, first compound 3.16 µM) was 80.1% and the viability, T/C (second compound 0.01 µM, first compound 10 µM) was 88.1%. It also gave a viability, T/C (second compound 0.0316 µM, first compound 0.0316 µM) of 73%, a viability, T/C (second compound 0.0316 µM, first compound 0.1 µM) of 81.8% and a viability, T/C (second compound 0.0316 µM, first compound 0.316 µM) of 67.3%. For the same compound, the viability, T/C (second compound 0.0316 µM, first compound 1 µM) was 69.4%, the viability, T/C (second compound 0.0316 µM, first compound 3.16 µM) was 58.5% and the viability, T/C (second compound 0.0316 µM, first compound 10 µM) was 75.1%. The viability, T/C (second compound 0.1 µM, first compound 0.0316 µM) was 43.7%, the viability, T/C (second compound 0.1 µM, first compound 0.1 µM) was 42.3% and the viability, T/C (second compound 0.1 µM, first compound 0.316 µM) was 37.1%. It also gave a viability, T/C (second compound 0.1 µM, first compound 1 µM) of 38%, a viability, T/C (second compound 0.1 µM, first compound 3.16 µM) of 35.2% and a viability, T/C (second compound 0.1 µM, first compound 10 µM) of 41.4%. The viability, T/C (second compound 0.316 µM, first compound 0.0316 µM) was 15.6%, the viability, T/C (second compound 0.316 µM, first compound 0.1 µM) was 22.3% and the viability, T/C (second compound 0.316 µM, first compound 0.316 µM) was 17.9%. It also gave a viability, T/C (second compound 0.316 µM, first compound 1 µM) of 18.1%, a viability, T/C (second compound 0.316 µM, first compound 3.16 µM) of 14.8% and a viability, T/C (second compound 0.316 µM, first compound 10 µM) of 16.6%. For the same compound, the viability, T/C (second compound 1 µM, first compound 0.0316 µM) was 6.44%, the viability, T/C (second compound 1 µM, first compound 0.1 µM) was 6.49% and the viability, T/C (second compound 1 µM, first compound 0.316 µM) was 6.92%. For the same compound, the viability, T/C (second compound 1 µM, first compound 1 µM) was 7.19%, the viability, T/C (second compound 1 µM, first compound 3.16 µM) was 4.62% and the viability, T/C (second compound 1 µM, first compound 10 µM) was 9.27%.
